According to patent publication US12239643B2, “Therapeutic agent for inflammatory diseases, autoimmune diseases, fibrotic diseases, and cancer diseases” (MEIJI SEIKA PHARMA CO., LTD., priority 2018, dated 2025):
Where two headings read alike, the source gives them in different places.

Test system: PDE4
Assay: Evaluation of PDE4 inhibitory activity, scintillation proximity assay
Type: biochemical
Conditions: scintillation proximity assay
Description: The BDE4 inhibitory activity was measured using scintillation proximity assay (SPA) as follows. First, a test compound dissolved in dimethyl sulfoxide was diluted 1:10 in reaction buffer solution which contained 50 mM of Tris-HCl with pH 7.4, 8.3 mM of MgCl2, 1.7 mM of EGTA, and 3 mg/mL of bovine serum albumin (BSA). Then, 10 μL of the diluted solution was added in a 96-well assay plate. Moreover, 50 μL of PDE4 (enzyme preparation) diluted 1:375 in the reaction buffer solution was added, and then 40 μL of [2,8-^3H]-adenosine-3′,5′-cyclic phosphate triethylammonium salt diluted 1:1000 in the reaction buffer solution was added. The mixture was allowed to stand at room temperature for 120 minutes. Thereafter, […] of RNA binding YSi-SPA beads suspension containing ZnSO4 was added and the mixture was allowed to stand at room temperature for 15 minutes, followed by adsorption of the enzyme reaction product to the beads. After that, the radioactivity was measured using a liquid scintillation counter for a 96-well plate. The mixture without the enzyme preparation added but only the reaction buffer solution added is a blank, and the mixture with the enzyme preparation added and only dimethyl sulfoxide added instead of the test compound is a control.
In addition, the PDE4 inhibitory activity (concentration that inhibits PDE4 activity by 50%=concentration for the inhibition rate of 50% (IC50)) of the test compound was calculated from the inhibition curves based on the inhibition rates for various concentrations of the test compound.

[1] = read-out: PDE4 Inhibitory Activity (Evaluation 1; concentration for the inhibition rate of 50%)
[2] = class symbols of Evaluation 1, read-out: PDE4 Inhibitory Activity (concentration for the inhibition rate of 50%, IC50), Evaluation 1

Row | SMILES | IC50 [1] | IC50 [2]
1 | OCC(F)(F)Oc1ccc(-c2cscn2)c2oc(N3CC4CC(C3)N4)nc12 [Example 311, 2-((2-(3,6-Diazabicyclo[3.1.1]heptan-3-yl)-7-(thiazol-4-yl)benzo[d]oxazol-4-yl)oxy)-2,2-difluoroethan-1-ol] | < 100 nM | –
2 | Clc1ccc(-c2nccs2)c2oc(N3CC4CCC(C3)N4)nc12 [Example 36, 2-(3,8-Diazabicyclo[3.2.1]octan-3-yl)-4-chloro-7-(thiazol-2-yl)benzo[d]oxazole] | – | < 100 nM
3 | COCCOC(c1cc(-c2nccs2)c2oc(N3CC4CCC(C3)N4)nc2c1)C(F)(F)F (stereo not drawn) [Example 147, 2-(3,8-Diazabicyclo[3.2.1]octan-3-yl)-7-(thiazol-2-yl)-5-(2,2,2-trifluoro-1-(2-methoxyethoxy)ethyl)benzo[d]oxazole] | – | < 100 nM
4 | CC(O)C(F)(F)Oc1ccc(-c2cscn2)c2oc(N3CC4CCC(C3)N4)nc12 (stereo not drawn) [Example 310, 1-((2-(3,8-Diazabicyclo[3.2.1]octan-3-yl)-7-(thiazol-4-yl)benzo[d]oxazol-4-yl)oxy)-1,1-difluoropropan-2-ol] | < 100 nM | –
5 | Oc1ccc(-c2nccs2)c2oc(N3CC4CCCC(C3)N4)nc12 [Example 80, 2-(3,9-Diazabicyclo[3.3.1]nonan-3-yl)-7-(thiazol-2-yl)benzo[d]oxazol-4-ol] | – | < 100 nM
6 | OC1(COC(c2ccc(-c3cscn3)c3oc(N4CC5CC(C4)N5)nc23)C(F)(F)F)CC1 (stereo not drawn) [Example 286, 1-((1-(2-(3,6-Diazabicyclo[3.1.1]heptan-3-yl)-7-(thiazol-4-yl)benzo[d]oxazol-4-yl)-2,2,2-trifluoroethoxy)methyl)cyclopropan-1-ol] | < 100 nM | –
7 | OCC(F)(F)OC(c1ccc(-c2nccs2)c2oc(N3CC4CC(C3)N4)nc12)C(F)(F)F (stereo not drawn) [Example 258, 2-(1-(2-(3,6-Diazabicyclo[3.1.1]heptan-3-yl)-7-(thiazol-2-yl)benzo[d]oxazol-4-yl)-2,2,2-trifluoroethoxy)-2,2-difluoroethan-1-ol] | < 100 nM | –
8 | OC(c1cc(-c2nccs2)c2oc(N3CC4CC(C3)N4)nc2c1OC(F)(F)F)C(F)F (stereo not drawn) [Example 293, 1-(2-(3,6-Diazabicyclo[3.1.1]heptan-3-yl)-7-(thiazol-2-yl)-4-(trifluoromethoxy)benzo[d]oxazol-5-yl)-2,2-difluoroethan-1-ol] | < 100 nM | –
9 | Oc1ccc(-c2nccs2)c2oc(N3CC4CC(C3)N4)nc12 [Example 79, 2-(3,6-Diazabicyclo[3.1.1]heptan-3-yl)-7-(thiazol-2-yl)benzo[d]oxazol-4-ol] | – | < 100 nM
10 | COC(C)c1ccc(-c2nccs2)c2oc(N3CC4CCC(C3)N4)nc12 (stereo not drawn) [Example 242, 2-(3,8-Diazabicyclo[3.2.1]octan-3-yl)-4-(1-methoxyethyl)-7-(thiazol-2-yl)benzo[d]oxazole] | < 100 nM | –
11 | CCOC(=O)c1cc(-c2nccs2)c2oc(N3CC4CCC(C3)N4)nc2c1 [Example 86, Ethyl 2-(3,8-diazabicyclo[3.2.1]octan-3-yl)-7-(thiazol-2-yl)benzo[d]oxazole-5-carboxylate] | – | < 100 nM
12 | COC(c1ccc(-c2nccs2)c2oc(N3CC4CC(C3)N4)nc12)C(F)(F)F (stereo not drawn) [Example 122, 2-(3,6-Diazabicyclo[3.1.1]heptan-3-yl)-7-(thiazol-2-yl)-4-(2,2,2-trifluoro-1-methoxyethyl)benzo[d]oxazole] | – | < 100 nM
13 | CSc1cc(-c2nccs2)c2oc(N3CC4CCC(C3)N4)nc2c1 [Example 39, 2-(3,8-Diazabicyclo[3.2.1]octan-3-yl)-5-(methylthio)-7-(thiazol-2-yl)benzo[d]oxazole] | – | < 100 nM
14 | CC(C)(O)COC(c1ccc(-c2cscn2)c2oc(N3CC4CC(C3)N4)nc12)C(F)(F)F (stereo not drawn) [Example 284, 1-(1-(2-(3,6-Diazabicyclo[3.1.1]heptan-3-yl)-7-(thiazol-4-yl)benzo[d]oxazol-4-yl)-2,2,2-trifluoroethoxy)-2-methylpropan-2-ol] | < 100 nM | –
15 | FC(F)(F)c1c(Cl)cc(-c2ccccn2)c2oc(N3CC4COCC(C3)N4)nc12 [Example 14, 7-(5-Chloro-7-(pyridin-2-yl)-4-(trifluoromethyl)benzo[d]oxazol-2-yl)-3-oxa-7,9-diazabicyclo[3.3.1]nonane] | – | 100 to 1000 nM
16 | O=C(NCc1ccccc1)c1ccc(-c2nccs2)c2oc(N3CC4CC(C3)N4)nc12 [Example 361, N-benzyl-2-(3,6-diazabicyclo[3.1.1]heptan-3-yl)-7-(thiazol-2-yl)benzo[d]oxazole-4-carboxamide] | < 100 nM | –
17 | OC(c1ccc(-c2nccs2)c2oc(N3CC4CCC(C3)N4O)nc12)C(F)(F)F (stereo not drawn) [Example 378, 3-(7-(Thiazol-2-yl)-4-(2,2,2-trifluoro-1-hydroxyethyl)benzo[d]oxazol-2-yl)-3,8-diazabicyclo[3.2.1]octan-8-ol] | 100 to 1000 nM | –

Row | SMILES | IC50 [1] | IC50 [2]
18 | CC(O)c1cc(-c2nccs2)c2oc(N3CC4CCC(C3)N4)nc2c1 (stereo not drawn) [Example 106, 1-(2-(3,8-Diazabicyclo[3.2.1]octan-3-yl)-7-(thiazol-2-yl)benzo[d]oxazol-5-yl)ethan-1-ol] | – | < 100 nM
19 | FC(F)(F)c1cc(-c2nccs2)c2oc(N3CC4CCCC(C3)N4)nc2c1 [Example 53, 2-(3,9-Diazabicyclo[3.3.1]nonan-3-yl)-7-(thiazol-2-yl)-5-(trifluoromethyl)benzo[d]oxazole] | – | < 100 nM
20 | COC(C)(C)c1cc(-c2nccs2)c2oc(N3CC4CC(C3)N4)nc2c1 [Example 174, 2-(3,6-Diazabicyclo[3.1.1]heptan-3-yl)-5-(2-methoxypropan-2-yl)-7-(thiazol-2-yl)benzo[d]oxazole] | – | < 100 nM
21 | N#CCOC(c1cc(-c2nccs2)c2oc(N3CC4CC(C3)N4)nc2c1)C(F)(F)F (stereo not drawn) [Example 152, 2-(1-(2-(3,6-Diazabicyclo[3.1.1]heptan-3-yl)-7-(thiazol-2-yl)benzo[d]oxazol-5-yl)-2,2,2-trifluoroethoxy)acetonitrile] | – | < 100 nM
22 | OCCOC(c1ccc(-c2nccs2)c2oc(N3CC4CC(C3)N4)nc12)C(F)(F)F (stereo not drawn) [Example 227, 2-(1-(2-(3,6-Diazabicyclo[3.1.1]heptan-3-yl)-7-(thiazol-2-yl)benzo[d]oxazol-4-yl)-2,2,2-trifluoroethoxy)ethan-1-ol] | < 100 nM | –
23 | NC(=O)COC(c1ccc(-c2nccs2)c2oc(N3CC4CC(C3)N4)nc12)C(F)(F)F (stereo not drawn) [Example 256, 2-(1-(2-(3,6-Diazabicyclo[3.1.1]heptan-3-yl)-7-(thiazol-2-yl)benzo[d]oxazol-4-yl)-2,2,2-trifluoroethoxy)acetamide] | < 100 nM | –
24 | OC1(COC(c2ccc(-c3nccs3)c3oc(N4CC5CC(C4)N5)nc23)C(F)(F)F)CC1 (stereo not drawn) [Example 232, 1-((1-(2-(3,6-Diazabicyclo[3.1.1]heptan-3-yl)-7-(thiazol-2-yl)benzo[d]oxazol-4-yl)-2,2,2-trifluoroethoxy)methyl)cyclopropan-1-ol] | < 100 nM | –
25 | COc1cc(-c2nccs2)c2oc(N3CC4CCCC(C3)N4)nc2c1 [Example 62, 2-(3,9-Diazabicyclo[3.3.1]nonan-3-yl)-5-methoxy-7-(thiazol-2-yl)benzo[d]oxazole] | – | < 100 nM
26 | CCOC(=O)c1cc(-c2nccs2)c2oc(N3CC4CCC(C3)N4)nc2c1C(F)(F)F [Example 163, Ethyl 2-(3,8-diazabicyclo[3.2.1]octan-3-yl)-7-(thiazol-2-yl)-4-(trifluoromethyl)benzo[d]oxazole-5-carboxylate] | – | < 100 nM
27 | OCC(CO)COc1cc(-c2nccs2)c2oc(N3CC4CCC(C3)N4)nc2c1 [Example 71, 2-(((2-(3,8-Diazabicyclo[3.2.1]octan-3-yl)-7-(thiazol-2-yl)benzo[d]oxazol-5-yl)oxy)methyl)propane-1,3-diol] | – | < 100 nM
28 | CC(O)c1cc(-c2nccs2)c2oc(N3CC4CCC(C3)N4)nc2c1OC(F)(F)F (stereo not drawn) [Example 202, 1-(2-(3,8-Diazabicyclo[3.2.1]octan-3-yl)-7-(thiazol-2-yl)-4-(trifluoromethoxy)benzo[d]oxazol-5-yl)ethan-1-ol] | < 100 nM | –
29 | FC(F)(F)Oc1c(Cl)cc(-c2nccs2)c2oc(N3CC4CCC(C3)N4)nc12 [Example 1, 2-(3,8-Diazabicyclo[3.2.1]octan-3-yl)-5-chloro-7-(thiazol-2-yl)-4-(trifluoromethoxy)benzo[d]oxazole] | – | < 100 nM
30 | CC(C)(O)COC(c1ccc(-c2nccs2)c2oc(N3CC4CC(C3)N4)nc12)C(F)F (stereo not drawn) [Example 127, 1-(1-(2-(3,6-Diazabicyclo[3.1.1]heptan-3-yl)-7-(thiazol-2-yl)benzo[d]oxazol-4-yl)-2,2-difluoroethoxy)-2-methylpropan-2-ol] | – | < 100 nM
31 | COC(C)(C)COC(c1ccc(-c2nccs2)c2oc(N3CC4CC(C3)N4)nc12)C(F)(F)F (stereo not drawn) [Example 281, 2-(3,6-Diazabicyclo[3.1.1]heptan-3-yl)-7-(thiazol-2-yl)-4-(2,2,2-trifluoro-1-(2-methoxy-2-methylpropoxy)ethyl)benzo[d]oxazole] | < 100 nM | –
32 | OCc1ccc(-c2nccs2)c2oc(N3CC4CCCC(C3)N4)nc12 [Example 134, (2-(3,9-Diazabicyclo[3.3.1]nonan-3-yl)-7-(thiazol-2-yl)benzo[d]oxazol-4-yl)methanol] | – | < 100 nM
33 | O=C(c1cc(-c2nccs2)c2oc(N3CC4CCC(C3)N4)nc2c1)N1CCOCC1 [Example 95, (2-(3,8-Diazabicyclo[3.2.1]octan-3-yl)-7-(thiazol-2-yl)benzo[d]oxazol-5-yl) (morpholino)methanone] | – | < 100 nM
